We go through 1 compound from ChEMBL document CHEMBL4622837, “Finding the mechanism of esterase D activation by a small molecule” (Bioorg Med Chem Lett, 2020).

Activity calls are given as the source filed them. No cut-off for these calls is given here.

For assay [1], the target named is T1, S-formylglutathione hydrolase (Homo sapiens) (UniProt P10768).
T1 sequence (whole entry): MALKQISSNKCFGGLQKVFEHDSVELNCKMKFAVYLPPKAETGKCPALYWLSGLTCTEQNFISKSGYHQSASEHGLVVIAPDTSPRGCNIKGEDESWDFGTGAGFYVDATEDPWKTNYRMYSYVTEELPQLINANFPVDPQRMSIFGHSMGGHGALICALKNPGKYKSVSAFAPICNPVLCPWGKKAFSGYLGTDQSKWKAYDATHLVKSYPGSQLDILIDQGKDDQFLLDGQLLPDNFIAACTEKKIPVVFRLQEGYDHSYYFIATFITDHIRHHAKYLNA
In words: Activation of human ESD expressed in HEK293T cells transfected with pEGFP-N1 at 0.1 uM after 24 hrs. Conditions: HEK-293T. The class given is cell-based.

Assay [2] addresses T1, S-formylglutathione hydrolase (Homo sapiens). As to the kind of experiment: Activation of ESD in human L02 cells at 0.1 to 1 uM after 24 hrs. The assay is classed as cell-based.
Assay [3] shares this target. In words: Activation of human ESD expressed in HEK293T cells transfected with pEGFP-N1 assessed as protein redistribution in cytoplasm by fluorescence microscopic analysis. The assay is classed as cell-based. Particulars: HEK-293T.
Assay [4] has the same target. In words: Activation of human ESD expressed in HEK293T cells transfected with pEGFP-N1 assessed as compound co-localization with protein by fluorescence microscopic analysis. Conditions: HEK-293T. The class given is cell-based.
For assay [5] the target is unchanged. In words: Inhibition of IgG binding to ESD in human L02 cells by immuno precipitation assay. The class given is cell-based.
The target is the same in assay [6]. As to the kind of experiment: Binding affinity to human ESD expressed in HEK293T cells assessed as association rate constant. The class given is cell-based. Particulars: HEK-293T.
The target in assay [7] is T2, S-formylglutathione hydrolase (Homo sapiens, UniProt P10768).
T2 sequence (P10768 whole entry): T1 sequence (whole entry)
In words: Binding affinity to human ESD expressed in HEK293T cells assessed as dissociation rate constant. Conditions: hek-293t. The assay is classed as cell-based.

The target in assay [8] is T2, S-formylglutathione hydrolase. As to the kind of experiment: Binding affinity to human ESD expressed in HEK293T cells assessed as dissociation constant. The assay is classed as cell-based, HEK-293T.
Assay [9] addresses T1, S-formylglutathione hydrolase (Homo sapiens). As to the kind of experiment: Activation of wild type human ESD expressed in HEK293T cells assessed as increase in protein mono ubiquitination at 0.1 to 1 uM incubated for 12 hrs by Western blot analysis. Conditions: HEK-293T. The class given is cell-based. A general note: In western blotting, separated proteins are transferred to a membrane and probed.

In assay [10] the test system is HEK-293T. In words: Activation of ESD K180A mutant (unknown origin) expressed in HEK293T cells transfected with p-EGFP assessed as increase in protein mono ubiquitination at 0.1 to 1 uM measured up to 36 hrs by Western blot analysis. The assay is classed as cell-based. Conditions: Homo sapiens.
In assay [11] the test system is HEK-293T. In words: Activation of ESD K213A mutant (unknown origin) expressed in HEK293T cells transfected with p-EGFP assessed as increase in protein mono ubiquitination at 0.1 to 1 uM measured up to 36 hrs by Western blot analysis. Particulars: Homo sapiens. The class given is cell-based.
Assay [12] has as its target T1, S-formylglutathione hydrolase (Homo sapiens). As to the kind of experiment: Activation of human ESD expressed in HEK293T cells transfected with pEGFP-N1 assessed as induction of protein mono ubiquitination at 5 uM after 3 hrs by immunoblotting analysis. The assay is classed as cell-based. Particulars: HEK-293T.
Assay [13] shares this target. In words: Activation of human ESD expressed in HEK293T cells transfected with pEGFP-N1 assessed as induction of protein mono ubiquitination at 1 to 5 uM after 6 hrs by immunoblotting analysis. Conditions: HEK-293T. The class given is cell-based.
Assay [14] shares this target. In words: Activation of human ESD expressed in HEK293T cells transfected with pEGFP-N1 assessed as increase in protein mono ubiquitination at 0.1 to 5 uM after 12 to 24 hrs by immunoblotting analysis. The class given is cell-based. Particulars: HEK-293T.
The test system of assay [15] is HEK-293T. As to the kind of experiment: Activation of ESD K180A mutant (unknown origin) expressed in HEK293T cells transfected with p-EGFP assessed as protein mono ubiquitination at 0.1 to 1 uM measured up to 24 hrs by Western blot analysis. Particulars: Homo sapiens. The class given is cell-based.
Assay [16] concerns HEK-293T. In words: Activation of ESD K213A mutant (unknown origin) expressed in HEK293T cells transfected with p-EGFP assessed as induction of protein mono ubiquitination at 0.1 to 1 uM measured up to 24 hrs by immunoblotting analysis. The assay is classed as cell-based. Particulars: Homo sapiens.
Assay [17] deals with HeLa. As to the kind of experiment: Activation of ESD K180A mutant (unknown origin) expressed in human HeLa cells transfected with p-EGFP assessed as compound co-localization with protein by fluorescence microscopic analysis. The class given is cell-based.
Assay [18] relates to HeLa. In words: Activation of ESD K213A mutant (unknown origin) expressed in human HeLa cells transfected with p-EGFP assessed as protein co-localization by fluorescence microscopic analysis. The assay is classed as cell-based.
Assay [19] concerns HeLa. In words: Activation of ESD K180A mutant (unknown origin) expressed in human HeLa cells transfected with p-EGFP at 0.1 uM. The assay is classed as cell-based.
The subject of assay [20] is HeLa. In words: Activation of ESD K213A mutant (unknown origin) expressed in human HeLa cells transfected with p-EGFP at 0.1 uM. The class given is cell-based.
The target in assay [21] is T1, S-formylglutathione hydrolase (Homo sapiens). In words: Inhibition of IgG binding to human ESD expressed in HEK293T cells. The class given is cell-based. Conditions: HEK-293T.
Assay [22] relates to HEK-293T. In words: Inhibition of IgG binding to ESD K180A mutant (unknown origin) expressed in HEK293T cells. Particulars: Homo sapiens. The assay is classed as cell-based.
The subject of assay [23] is HEK-293T. In words: Inhibition of IgG binding to ESD K213A mutant (unknown origin) expressed in HEK293T cells. The assay is classed as cell-based. Conditions: Homo sapiens.

Turning to `Oc1ccc(Cl)cc1C1=NN(c2ccccn2)C(c2ccccc2)C1` (stereo not drawn), the result in assay [1], in assay [2], in assay [3], in [4], in assay [9] and in assay [12] was Active. For the same compound, the result in assay [13] and in [14] was Active. Besides, the inhibition entry in [5] and in [21] was “Dose-dependent effect” each time. The Ka in [6] was found to be 5.2 ×10⁵ /M/s. Besides, the Kd in assay [7] was 4.4 ×10⁻⁴ /s; in assay [8] it was 0.8 nM. Also, the result in the assay on HEK-293T [10], in the assay with HEK-293T [11], in the assay on HEK-293T [15], in the assay on HEK-293T [16], in the assay with HeLa [17] and in the assay on HeLa [18] was inactive. For the same compound, the outcome in the assay with HeLa [19] and with HeLa [20] was inactive. The inhibition result in the assay with HEK-293T [22] and in the assay on HEK-293T [23] was “inactive” throughout.
